Assay results taken from patent US20220177446A1, “ALKYNE COMPOUNDS AS IRAK INHIBITORS, PREPARATION METHODS AND MEDICINAL USES THEREOF” (Eternity Bioscience Inc., priority 2020, published 2022).
Read-outs that look alike come from different tables or passages of the source.

What was measured:
[1] = target: T1, IRAK4 (Homo sapiens, UniProt Q9NWZ3); assay: IRAK4 Human PBMC TNFα Cell Based Assay (AlphaLISA); settings: TNFα measured
T1 construct: host or cells: human peripheral blood mononuclear cells (PBMCs)
T1 sequence (Q9NWZ3 1-460): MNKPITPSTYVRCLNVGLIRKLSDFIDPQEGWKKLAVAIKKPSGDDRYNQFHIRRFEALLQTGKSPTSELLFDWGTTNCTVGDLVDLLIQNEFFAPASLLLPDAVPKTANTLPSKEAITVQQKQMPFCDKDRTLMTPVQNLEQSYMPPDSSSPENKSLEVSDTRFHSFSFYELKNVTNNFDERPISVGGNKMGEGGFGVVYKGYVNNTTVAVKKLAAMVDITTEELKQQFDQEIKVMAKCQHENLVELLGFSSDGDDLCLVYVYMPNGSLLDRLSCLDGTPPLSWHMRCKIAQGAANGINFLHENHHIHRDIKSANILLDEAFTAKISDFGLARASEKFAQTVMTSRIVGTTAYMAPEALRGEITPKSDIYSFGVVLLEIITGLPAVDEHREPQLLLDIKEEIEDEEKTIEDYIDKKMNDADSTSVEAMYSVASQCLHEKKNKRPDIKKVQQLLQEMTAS
Method: In this assay, serially diluted compounds were incubated with 1×10^4 human peripheral blood mononuclear cells (PBMCs) from STEMCELL (Cat #70025.1) per well of 384-well plate (Fisher Scientific; 50-905-2761) and cultured with TexMACS medium (Miltenyi, Cat #130-097-196), stimulated by R848 (0.5 μM) or IL-1β (10 ng/ml). Plates were covered with lids and incubated for 4 h (R848, Fisher Scientific, Cat #NC9801605) or 24 h (IL-1β, Fisher Scientific, Cat #ENRIL1BI) at 37° C. in a humidified tissue-culture incubator. After a brief centrifugation at 1000 rpm for 5 minutes, 5 μl of culture medium was used for the measurement of the TNFα amount using TNFα (human) AlphaLISA Detection Kit (PerkinElmer, Cat #AL208C) according to manufacturer's protocol. A biotinylated anti-TNFα antibody binds to the Streptavidin-coated Donor beads while another anti-TNFα antibody is conjugated to AlphaLISA Acceptor beads. In the presence of the TNFα, the beads come into close proximity. The excitation of the Donor beads causes the release of singlet oxygen molecules that triggers a cascade of energy transfer in the Acceptor beads, resulting in a sharp peak of light emission at 615 nm. AlphaLISA assay plates were read using PHERAstar. Percentage of inhibition was calculated as below:
(§1) % inhibition=(1−(Reading(Sample)−Reading(Negative Control))/(Reading(Positive Control)−Reading(Negative Control)))×100%
The 0% inhibition value comes from the Reading of Positive Control wells having 0 nM compound. The 100% inhibition value comes from the Reading of Negative Control wells having no R848 or IL-1β.

[2] = target: T2, full length human IRAK4 protein (Homo sapiens, UniProt Q9NWZ3); assay: IRAK4 Biochemical Assay (Promega ADP-Glo IRAK4 Kinase Enzyme System); settings: 3 nM enzyme, 250 μM ATP; for IC50: 2 μM MBP, 60 min at room temperature; for IRAK4 Biochemical Assay Max Inhibition (%): maximum inhibition
T2 construct: Purified full length human IRAK4 protein; purchased Signal Chem I12-10G-125
T2 sequence (Q9NWZ3 1-460): T1 sequence (Q9NWZ3 1-460)
Method: For the routine compound screening, an IRAK4 kinase assay was performed as follows using Promega ADP-Glo IRAK4 Kinase Enzyme System (Promega, Cat #2198-AD). Purified full length human IRAK4 protein (Signal Chem; Cat #I12-10G-125) was diluted to a concentration 6 nM in assay buffer (25 mM MOPS, pH 7.2, 12.5 mM β-glycerol-phosphate, 25 mM MgCl2, 5 mM EGTA, 2 mM EDTA, 0.0025% Brij-35, add 0.25 mM DTT to Kinase Assay Buffer prior to use) containing IRAK4 inhibitor at 2× the final concentration in 0.4% DMSO. The reaction was performed in PerkinElmer Proxiplate-384 plus white plate (Fisher Scientific, Cat #50-905-2761) and started by the addition of an equal volume of the assay buffer containing 4 μM native swine myelin basic protein (MBP) and 500 μM ATP to achieve a final concentration of 3 nM enzyme, 2 μM MBP, 250 μM ATP, 1× compound, and 0.2% DMSO. The kinase reaction was allowed to run for 60 min at room temperature (25-27° C.), then 5 μL of ADP-Glo was added to the reaction in each well followed by 40 minutes-incubation at RT. To detect converted […], 10 μL Detection Buffer was added into each well and Incubate at RT in dark for 30 minutes. Finally, luminescence was read using Tecan with 1000 ms of integration time. The luminescent signal positively correlates with ADP amount and kinase activity. Data was analyzed by GraphPad Prism and IC50 was calculated using function log(inhibitor) vs. response—Variable slope (four parameters). Percentage of inhibition was calculated as below:
as §1
The 0% inhibition value comes from the Reading of Positive Control wells having 0 nM compound. The 100% inhibition value comes from the Reading of Negative Control wells having no IRAK4 kinase.

[3] = human PBMCs stimulated by IL-1β (10 ng/ml), 24 h, read-out: IRAK4 PBMC AlphaLISA IL-1β (IC50)
[4] = human PBMCs stimulated by R848 (0.5 μM), 4 h, read-out: IRAK4 PBMC AlphaLISA R848 (IC50)

## CC[C@@H]1[C@H](F)C(=O)N[C@@H]1COc1ncc(C#CC(C)(C)NC(=O)OC(C)(C)C)c2cc(C(N)=O)c(OC)cc12 [Example 1, tert-butyl (4-(6-carbamoyl-1-(((2S,3S,4S)-3-ethyl-4-fluoro-5-oxopyrrolidin-2-yl)methoxy)-7-methoxyisoquinolin-4-yl)-2-methylbut-3-yn-2-yl)carbamate]
[1]; [3]
  IC50: 18.1 nM
[1]; [4]
  IC50: 16 nM
[2]
  IC50: 8.4 nM
  IRAK4 Biochemical Assay Max Inhibition (%): 100.0%

## CC[C@@H]1[C@H](F)C(=O)N[C@@H]1COc1ncc(C#CC(C)(C)N)c2cc(C(N)=O)c(OC)cc12 [Example 2, 4-(3-amino-3-methylbut-1-yn-1-yl)-1-(((2S,3S,4S)-3-ethyl-4-fluoro-5-oxopyrrolidin-2-yl)methoxy)-7-methoxyisoquinoline-6-carboxamide]
[1]; [3]
  IC50: 25 nM
[1]; [4]
  IC50: 16 nM
[2]
  IC50: 63 nM
  IRAK4 Biochemical Assay Max Inhibition (%): 100.0%

## CC[C@@H]1[C@H](F)C(=O)N[C@@H]1COc1ncc(C#CC(C)(C)O)c2cc(C(N)=O)c(OC)cc12 [Example 3, 1-(((2S,3S,4S)-3-ethyl-4-fluoro-5-oxopyrrolidin-2-yl)methoxy)-4-(3-hydroxyl-3-methylbut-1-yn-1-yl)-7-methoxyisoquinoline-6-carboxamide]
[1]; [3]
  IC50: 4.7 nM
[1]; [4]
  IC50: 2.7 nM
[2]
  IC50: 17 nM
  IRAK4 Biochemical Assay Max Inhibition (%): 100.0%

## CC[C@@H]1[C@H](F)C(=O)N[C@@H]1COc1ncc(C#CC(=O)O)c2cc(C(N)=O)c(OC)cc12 [Example 4, 3-(6-carbamoyl-1-(((2S,3S,4S)-3-ethyl-4-fluoro-5-oxopyrrolidin-2-yl)methoxy)-7-methoxyisoquinolin-4-yl)propiolic acid]
[2]
  IC50: 5.7 nM
  IRAK4 Biochemical Assay Max Inhibition (%): 98.0%

## COc1cc2c(OC[C@@H]3CCC(=O)N3)ncc(C#Cc3ccc(C)cc3)c2cc1C(N)=O [Example 7, (S)-7-methoxy-1-((5-oxopyrrolidin-2-yl)methoxy)-4-(p-tolylethynyl)isoquinoline-6-carboxamide]
[1]; [3]
  IC50: 89 nM
[1]; [4]
  IC50: 150 nM

## COc1cc2c(OC[C@@H]3CCC(=O)N3)ncc(C#CCN(C)C)c2cc1C(N)=O [Example 8, (S)-4-(3-(dimethylamino)prop-1-yn-1-yl)-7-methoxy-1-((5-oxopyrrolidin-2-yl)methoxy)isoquinoline-6-carboxamide]
[1]; [3]
  IC50: 128 nM
[1]; [4]
  IC50: 175 nM
[2]
  IC50: 7.5 nM
  IRAK4 Biochemical Assay Max Inhibition (%): 97.0%

## COCC#Cc1cnc(OC[C@@H]2CCC(=O)N2)c2cc(OC)c(C(N)=O)cc12 [Example 9, (S)-7-methoxy-4-(3-methoxyprop-1-yn-1-yl)-1-((5-oxopyrrolidin-2-yl)methoxy)isoquinoline-6-carboxamide]
[1]; [3]
  IC50: 110 nM
[1]; [4]
  IC50: 140 nM
[2]
  IC50: 14 nM
  IRAK4 Biochemical Assay Max Inhibition (%): 100.0%

## CC[C@@H]1[C@H](F)C(=O)N[C@@H]1COc1ncc(C#Cc2nn[nH]n2)c2cc(C(N)=O)c(OC)cc12 [Example 10, 4-((2H-tetrazol-5-yl)ethynyl)-1-(((2S,3S,4S)-3-ethyl-4-fluoro-5-oxopyrrolidin-2-yl)methoxy)-7-methoxyisoquinoline-6-carboxamide]
[2]
  IC50: 68 nM
  IRAK4 Biochemical Assay Max Inhibition (%): 100.0%

## CC[C@@H]1[C@H](F)C(=O)N[C@@H]1COc1ncc(C#CC(=O)N(C)C)c2cc(C(N)=O)c(OC)cc12 [Example 11, 4-(3-(dimethylamino)-3-oxoprop-1-yn-1-yl)-1-(((2S,3S,4S)-3-ethyl-4-fluoro-5-oxopyrrolidin-2-yl)methoxy)-7-methoxyisoquinoline-6-carboxamide]
[1]; [3]
  IC50: 1 nM
[1]; [4]
  IC50: 0.7 nM
[2]
  IC50: 10 nM
  IRAK4 Biochemical Assay Max Inhibition (%): 95.0%

## CC[C@@H]1[C@H](F)C(=O)N[C@@H]1COc1ncc(C#Cc2cncnc2)c2cc(C(N)=O)c(OC)cc12 [Example 12, 1-(((2S,3S,4S)-3-ethyl-4-fluoro-5-oxopyrrolidin-2-yl)methoxy)-7-methoxy-4-(pyrimidin-5-ylethynyl)isoquinoline-6-carboxamide]
[1]; [3]
  IC50: 0.8 nM
[1]; [4]
  IC50: 1.4 nM
[2]
  IC50: 69 nM
  IRAK4 Biochemical Assay Max Inhibition (%): 100.0%

## CC[C@@H]1[C@H](F)C(=O)N[C@@H]1COc1ncc(C#Cc2cnccn2)c2cc(C(N)=O)c(OC)cc12 [Example 13, 1-(((2S,3S,4S)-3-ethyl-4-fluoro-5-oxopyrrolidin-2-yl)methoxy)-7-methoxy-4-(pyrazin-2-ylethynyl)isoquinoline-6-carboxamide]
[1]; [3]
  IC50: 1.3 nM
[1]; [4]
  IC50: 1.6 nM
[2]
  IC50: 18 nM
  IRAK4 Biochemical Assay Max Inhibition (%): 95.0%

## CC[C@@H]1[C@H](F)C(=O)N[C@@H]1COc1ncc(C#Cc2cccnc2)c2cc(C(N)=O)c(OC)cc12 [Example 14, 1-(((2S,3S,4S)-3-ethyl-4-fluoro-5-oxopyrrolidin-2-yl)methoxy)-7-methoxy-4-(pyridin-3-ylethynyl)isoquinoline-6-carboxamide]
[1]; [3]
  IC50: 1.3 nM
[1]; [4]
  IC50: 1.6 nM
[2]
  IC50: 29 nM
  IRAK4 Biochemical Assay Max Inhibition (%): 100.0%

## CC[C@@H]1[C@H](F)C(=O)N[C@@H]1COc1ccc(C#CCN(C)C)c2cc(C(N)=O)c(OC)cc12 [Example 15, 8-(3-(dimethylamino)prop-1-yn-1-yl)-5-(((2S,3S,4S)-3-ethyl-4-fluoro-5-oxopyrrolidin-2-yl)methoxy)-3-methoxy-2-naphthamide]
[1]; [3]
  IC50: 1.3 nM
[1]; [4]
  IC50: 1.7 nM
[2]
  IC50: 12 nM
  IRAK4 Biochemical Assay Max Inhibition (%): 101.0%

## CC[C@@H]1[C@H](F)C(=O)N[C@@H]1COc1ncc(C#Cc2ncccn2)c2cc(C(N)=O)c(OC)cc12 [Example 16, 1-(((2S,3S,4S)-3-ethyl-4-fluoro-5-oxopyrrolidin-2-yl)methoxy)-7-methoxy-4-(pyrimidin-2-ylethynyl)isoquinoline-6-carboxamide]
[1]; [3]
  IC50: 8.7 nM
[1]; [4]
  IC50: 1.7 nM
[2]
  IC50: 19 nM
  IRAK4 Biochemical Assay Max Inhibition (%): 99.0%

## CC[C@@H]1[C@H](F)C(=O)N[C@@H]1COc1ncc(C#Cc2cnn(C)c2)c2cc(C(N)=O)c(OC)cc12 [Example 17, 1-(((2S,3S,4S)-3-ethyl-4-fluoro-5-oxopyrrolidin-2-yl)methoxy)-7-methoxy-4-((1-methyl-1H-pyrazol-4-yl)ethynyl)isoquinoline-6-carboxamide]
[1]; [3]
  IC50: 1.5 nM
[1]; [4]
  IC50: 2.4 nM
[2]
  IC50: 32 nM
  IRAK4 Biochemical Assay Max Inhibition (%): 100.0%

## CC[C@@H]1[C@H](F)C(=O)N[C@@H]1COc1ncc(C#C[C@H](C)O)c2cc(C(N)=O)c(OC)cc12 [Example 18, 1-(((2S,3S,4S)-3-ethyl-4-fluoro-5-oxopyrrolidin-2-yl)methoxy)-4-((S)-3-hydroxybut-1-yn-1-yl)-7-methoxyisoquinoline-6-carboxamide]
[1]; [3]
  IC50: 1.7 nM
[1]; [4]
  IC50: 2.5 nM
[2]
  IC50: 27.5 nM
  IRAK4 Biochemical Assay Max Inhibition (%): 95.0%
